From patent US11236129B2, “IL-17A binding peptides and medical uses thereof” (Dompe' Farmaceutici S.P.A., priority 2018, dated 2022)
Residues, ends and D or L forms follow the SMILES beside them.

Molecular target: IL-17RA/IL17RC dimerization induced by IL-17A (Homo sapiens, UniProt Q16552)
Experiment: IL-17RA/IL17RC dimerization assay in response to IL-17A (PathHunter Cytokine Receptor Assay)
Assay type: cell-based
Conditions: IL-17A at EC80; read-out: IC50 in IL-17RA/IL7RC dimerization assay
Outline: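 PathHunter cells with IL-17RA and IL-17RC tagged for β-galactosidase complementation were preincubated 60 min with peptide (1% vehicle). IL-17A was then added at EC80 for 6–16 h at 37 °C, and chemiluminescence was read. Inhibition is relative to the EC80 and vehicle controls.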

Chain of IL-17RA/IL17RC dimerization induced by IL-17A (Q16552 24-155): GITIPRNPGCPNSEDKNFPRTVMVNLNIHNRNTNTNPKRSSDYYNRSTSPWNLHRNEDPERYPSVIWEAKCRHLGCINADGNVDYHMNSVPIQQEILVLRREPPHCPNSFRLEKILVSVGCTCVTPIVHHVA

| IC50 [µM] | SMILES |
| --- | --- |
| < 0.5 | CC[C@H](C)[C@H](NC(=O)[C@@H](NC(=O)[C@@H](NC(=O)[C@H](Cc1c[nH]cn1)NC(=O)[C@@H](NC(C)=O)C(C)C)C(C)C)[C@@H](C)O)C(=O)N1CCC[C@H]1C(=O)N[C@@H](C)C(=O)N[C@@H](CC(=O)O)C(=O)N[C@@H](CC(C)C)C(=O)N[C@@H](Cc1ccc(O)cc1)C(=O)N[C@@H](CC(N)=O)C(=O)N[C@@H](Cc1ccccc1)C(=O)N[C@@H](Cc1ccccc1)C(=O)N[C@@H](CCCNC(=N)N)C(=O)N[C@@H](CCCNC(=N)N)C(N)=O [SEQ ID NO: 149] (Ac-VHVTIPADLYNFFRR-NH2) |
| < 0.5 | CC(=O)N[C@H](C(=O)N[C@@H](Cc1c[nH]cn1)C(=O)N[C@@H](Cc1ccccc1)C(=O)N[C@@H](CCC(N)=O)C(=O)N[C@@H](Cc1ccccc1)C(=O)N1CCC[C@H]1C(=O)N[C@@H](CCC(N)=O)C(=O)N[C@@H](CC(=O)O)C(=O)N[C@@H](CC(C)C)C(=O)N[C@@H](Cc1c[nH]c2ccccc12)C(=O)N[C@@H](CCC(=O)O)C(=O)N[C@@H](Cc1c[nH]c2ccccc12)C(=O)N[C@H](C(=O)N[C@@H](CCCNC(=N)N)C(=O)N[C@@H](CCCNC(=N)N)C(N)=O)C(C)C)C(C)C [SEQ ID NO: 150] (Ac-VHFQFPQDLWEWVRR-NH2) |
| < 0.5 | CC[C@H](C)[C@H](NC(=O)[C@@H](NC(=O)[C@H](Cc1ccccc1)NC(=O)[C@H](Cc1c[nH]cn1)NC(=O)[C@@H](NC(C)=O)C(C)C)[C@@H](C)O)C(=O)N1CCC[C@H]1C(=O)N[C@@H](CCC(N)=O)C(=O)N[C@@H](CC(=O)O)C(=O)N[C@@H](CC(C)C)C(=O)N[C@@H](Cc1ccc(O)cc1)C(=O)N[C@@H](CC(N)=O)C(=O)N[C@@H](Cc1c[nH]c2ccccc12)C(=O)N[C@@H](CCCNC(=N)N)C(=O)N[C@@H](CCCNC(=N)N)C(N)=O [SEQ ID NO: 151] (Ac-VHFTIPQDLYNWRR-NH2) |
| < 0.5 | CC[C@H](C)[C@H](NC(=O)[C@@H](NC(=O)[C@H](Cc1ccccc1)NC(=O)[C@H](Cc1c[nH]cn1)NC(=O)[C@@H](NC(C)=O)C(C)C)[C@@H](C)O)C(=O)N1CCC[C@H]1C(=O)N[C@@H](C)C(=O)N[C@@H](CC(=O)O)C(=O)N[C@@H](CC(C)C)C(=O)N[C@@H](Cc1ccc(O)cc1)C(=O)N[C@@H](CC(N)=O)C(=O)N[C@@H](Cc1ccccc1)C(=O)N[C@H](C(=O)N[C@@H](CCCNC(=N)N)C(=O)N[C@@H](CCCNC(=N)N)C(N)=O)C(C)C [SEQ ID NO: 152] (Ac-VHFTIPADLYNFVRR-NH2) |
| < 0.5 | CC[C@H](C)[C@H](NC(=O)[C@H](CCC(N)=O)NC(=O)[C@H](Cc1ccccc1)NC(=O)[C@H](Cc1c[nH]cn1)NC(=O)[C@@H](NC(C)=O)C(C)C)C(=O)N1CCC[C@H]1C(=O)N[C@@H](CCC(N)=O)C(=O)N[C@@H](CC(=O)O)C(=O)N[C@@H](CC(C)C)C(=O)N[C@@H](Cc1ccc(O)cc1)C(=O)N[C@@H](CC(N)=O)C(=O)N[C@@H](Cc1ccccc1)C(=O)N[C@@H](Cc1ccccc1)C(=O)N[C@@H](CCCNC(=N)N)C(=O)N[C@@H](CCCNC(=N)N)C(N)=O [SEQ ID NO: 153] (Ac-VHFQIPQDLYNFFRR-NH2) |
| < 0.5 | CC(=O)N[C@H](C(=O)N[C@@H](Cc1c[nH]cn1)C(=O)N[C@@H](Cc1ccccc1)C(=O)N[C@@H](CCC(N)=O)C(=O)N[C@@H](Cc1ccccc1)C(=O)N1CCC[C@H]1C(=O)N[C@@H](CCC(N)=O)C(=O)N[C@@H](CCC(=O)O)C(=O)N[C@@H](Cc1c[nH]c2ccccc12)C(=O)N[C@@H](Cc1ccc(O)cc1)C(=O)N[C@@H](CC(N)=O)C(=O)N[C@@H](Cc1c[nH]c2ccccc12)C(=O)N[C@@H](Cc1ccccc1)C(=O)N[C@@H](CCCNC(=N)N)C(=O)N[C@@H](CCCNC(=N)N)C(N)=O)C(C)C [SEQ ID NO: 154] (Ac-VHFQFPQEWYNWFRR-NH2) |
| < 0.5 | CC(=O)N[C@H](C(=O)N[C@@H](CCCNC(=N)N)C(=O)N[C@@H](Cc1ccccc1)C(=O)N[C@@H](CCC(N)=O)C(=O)N[C@@H](Cc1ccccc1)C(=O)NCC(=O)N[C@@H](CCC(N)=O)C(=O)N[C@@H](CCC(=O)O)C(=O)N[C@@H](Cc1c[nH]c2ccccc12)C(=O)N[C@@H](Cc1ccc(O)cc1)C(=O)N[C@@H](CC(N)=O)C(=O)N[C@@H](Cc1ccccc1)C(=O)N[C@@H](Cc1ccccc1)C(=O)N[C@@H](CCCNC(=N)N)C(=O)N[C@@H](CCCNC(=N)N)C(N)=O)C(C)C [SEQ ID NO: 155] (Ac-VRFQFGQEWYNFFRR-NH2) |
| < 0.5 | CC[C@H](C)[C@H](NC(=O)[C@@H](NC(=O)[C@@H](NC(=O)[C@H](Cc1c[nH]cn1)NC(=O)[C@@H](NC(=O)CNC(=O)[C@H](C)NC(=O)CNC(=O)[C@@H]1CCCN1C(=O)[C@@H](NC(=O)CNC(=O)[C@H](C)NC(=O)CNC(=O)[C@@H]1CCCN1C(=O)[C@@H](NC(C)=O)C(C)C)C(C)C)[C@@H](C)CC)C(C)C)[C@@H](C)O)C(N)=O [SEQ ID NO: 156] (Ac-VPGAGVPGAGIHVTI-NH2) |
| < 0.5 | CC[C@H](C)[C@H](NC(=O)CNC(=O)[C@H](C)NC(=O)CNC(=O)[C@@H]1CCCN1C(=O)[C@@H](NC(=O)CNC(=O)[C@H](C)NC(=O)CNC(=O)[C@@H]1CCCN1C(=O)[C@@H](NC(C)=O)C(C)C)C(C)C)C(=O)N[C@@H](Cc1c[nH]cn1)C(=O)N[C@H](C(=O)N[C@H](C(=O)N[C@H](C(=O)N1CCC[C@H]1C(=O)N[C@@H](C)C(N)=O)[C@@H](C)CC)[C@@H](C)O)C(C)C [SEQ ID NO: 157] (Ac-VPGAGVPGAGIHVTIPA-NH2) |
| < 10 | CC[C@H](C)[C@H](NC(=O)[C@H](Cc1c[nH]c2ccccc12)NC(=O)[C@H](CC(=O)O)NC(=O)[C@H](Cc1c[nH]c2ccccc12)NC(=O)[C@H](CC(C)C)NC(=O)[C@H](CC(=O)O)NC(=O)[C@H](C)NC(=O)[C@@H]1CCCN1C(=O)[C@@H](NC(=O)[C@@H](NC(=O)[C@@H](NC(=O)[C@H](Cc1c[nH]cn1)NC(=O)[C@H](C)NC(C)=O)C(C)C)[C@@H](C)O)[C@@H](C)CC)C(=O)N[C@@H](CC(N)=O)C(=O)N[C@@H](CCCCN)C(N)=O [SEQ ID NO: 158] (Ac-AHVTIPADLWDWINK-NH2) |
| < 10 | CC[C@H](C)[C@H](NC(=O)[C@H](Cc1c[nH]c2ccccc12)NC(=O)[C@H](CC(=O)O)NC(=O)[C@H](Cc1c[nH]c2ccccc12)NC(=O)[C@H](CC(C)C)NC(=O)[C@H](CC(=O)O)NC(=O)[C@H](C)NC(=O)[C@@H]1CCCN1C(=O)[C@@H](NC(=O)[C@@H](NC(=O)[C@@H](NC(=O)[C@H](Cc1c[nH]cn1)NC(=O)CNC(C)=O)C(C)C)[C@@H](C)O)[C@@H](C)CC)C(=O)N[C@@H](CC(N)=O)C(=O)N[C@@H](CCCCN)C(N)=O [SEQ ID NO: 159] (Ac-GHVTIPADLWDWINK-NH2) |
| < 10 | CC[C@H](C)[C@H](NC(=O)[C@H](Cc1c[nH]c2ccccc12)NC(=O)[C@H](CC(=O)O)NC(=O)[C@H](Cc1c[nH]c2ccccc12)NC(=O)[C@H](CC(C)C)NC(=O)[C@H](CC(=O)O)NC(=O)[C@H](C)NC(=O)[C@@H]1CCCN1C(=O)[C@@H](NC(=O)[C@@H](NC(=O)[C@@H](NC(=O)[C@H](Cc1c[nH]cn1)NC(=O)[C@H](CC(C)C)NC(C)=O)C(C)C)[C@@H](C)O)[C@@H](C)CC)C(=O)N[C@@H](CC(N)=O)C(=O)N[C@@H](CCCCN)C(N)=O [SEQ ID NO: 160] (Ac-LHVTIPADLWDWINK-NH2) |
| < 10 | CC[C@H](C)[C@H](NC(=O)[C@H](Cc1c[nH]c2ccccc12)NC(=O)[C@H](CC(=O)O)NC(=O)[C@H](Cc1c[nH]c2ccccc12)NC(=O)[C@H](CC(C)C)NC(=O)[C@H](CC(=O)O)NC(=O)[C@H](C)NC(=O)[C@@H]1CCCN1C(=O)[C@@H](NC(=O)[C@@H](NC(=O)[C@@H](NC(=O)[C@H](Cc1c[nH]cn1)NC(=O)[C@@H]1CCCN1C(C)=O)C(C)C)[C@@H](C)O)[C@@H](C)CC)C(=O)N[C@@H](CC(N)=O)C(=O)N[C@@H](CCCCN)C(N)=O [SEQ ID NO: 161] (Ac-PHVTIPADLWDWINK-NH2) |
| < 10 | CC[C@H](C)[C@H](NC(C)=O)C(=O)N[C@@H](CCCNC(=N)N)C(=O)N[C@H](C(=O)N[C@H](C(=O)N[C@H](C(=O)N1CCC[C@H]1C(=O)N[C@@H](C)C(=O)N[C@@H](CC(=O)O)C(=O)N[C@@H](CC(C)C)C(=O)N[C@@H](Cc1c[nH]c2ccccc12)C(=O)N[C@@H](CC(=O)O)C(=O)N[C@@H](Cc1c[nH]c2ccccc12)C(=O)N[C@H](C(=O)N[C@@H](CC(N)=O)C(=O)N[C@@H](CCCCN)C(N)=O)[C@@H](C)CC)[C@@H](C)CC)[C@@H](C)O)C(C)C [SEQ ID NO: 162] (Ac-IRVTIPADLWDWINK-NH2) |
| < 10 | CC[C@H](C)[C@H](NC(C)=O)C(=O)N[C@@H](CCCCN)C(=O)N[C@H](C(=O)N[C@H](C(=O)N[C@H](C(=O)N1CCC[C@H]1C(=O)N[C@@H](C)C(=O)N[C@@H](CC(=O)O)C(=O)N[C@@H](CC(C)C)C(=O)N[C@@H](Cc1c[nH]c2ccccc12)C(=O)N[C@@H](CC(=O)O)C(=O)N[C@@H](Cc1c[nH]c2ccccc12)C(=O)N[C@H](C(=O)N[C@@H](CC(N)=O)C(=O)N[C@@H](CCCCN)C(N)=O)[C@@H](C)CC)[C@@H](C)CC)[C@@H](C)O)C(C)C [SEQ ID NO: 163] (Ac-IKVTIPADLWDWINK-NH2) |
| < 10 | CC[C@H](C)[C@H](NC(C)=O)C(=O)N[C@@H](CCC(=O)O)C(=O)N[C@H](C(=O)N[C@H](C(=O)N[C@H](C(=O)N1CCC[C@H]1C(=O)N[C@@H](C)C(=O)N[C@@H](CC(=O)O)C(=O)N[C@@H](CC(C)C)C(=O)N[C@@H](Cc1c[nH]c2ccccc12)C(=O)N[C@@H](CC(=O)O)C(=O)N[C@@H](Cc1c[nH]c2ccccc12)C(=O)N[C@H](C(=O)N[C@@H](CC(N)=O)C(=O)N[C@@H](CCCCN)C(N)=O)[C@@H](C)CC)[C@@H](C)CC)[C@@H](C)O)C(C)C [SEQ ID NO: 164] (Ac-IEVTIPADLWDWINK-NH2) |
| < 10 | CC[C@H](C)[C@H](NC(C)=O)C(=O)N[C@@H](CCC(N)=O)C(=O)N[C@H](C(=O)N[C@H](C(=O)N[C@H](C(=O)N1CCC[C@H]1C(=O)N[C@@H](C)C(=O)N[C@@H](CC(=O)O)C(=O)N[C@@H](CC(C)C)C(=O)N[C@@H](Cc1c[nH]c2ccccc12)C(=O)N[C@@H](CC(=O)O)C(=O)N[C@@H](Cc1c[nH]c2ccccc12)C(=O)N[C@H](C(=O)N[C@@H](CC(N)=O)C(=O)N[C@@H](CCCCN)C(N)=O)[C@@H](C)CC)[C@@H](C)CC)[C@@H](C)O)C(C)C [SEQ ID NO: 165] (Ac-IQVTIPADLWDWINK-NH2) |
